Source: ChEMBL document CHEMBL2021850, “Steroidal C-21 heteroaryl thioethers. Part 3: pregn-4-eno-[3,2-c]pyrazole fused A ring modified steroids as selective glucocorticoid receptor modulators (dissociated steroids)” (Bioorg Med Chem Lett, 2012)

Assays:
Glucocorticoid receptor [1] = biological target: T1, Glucocorticoid receptor (Homo sapiens, UniProt P04150); assay: Transrepression activity at glucocorticoid receptor in human H292 cells assessed as inhibition of TNF-induced IL8 production; format: cell-based
T1 sequence (P04150 whole entry): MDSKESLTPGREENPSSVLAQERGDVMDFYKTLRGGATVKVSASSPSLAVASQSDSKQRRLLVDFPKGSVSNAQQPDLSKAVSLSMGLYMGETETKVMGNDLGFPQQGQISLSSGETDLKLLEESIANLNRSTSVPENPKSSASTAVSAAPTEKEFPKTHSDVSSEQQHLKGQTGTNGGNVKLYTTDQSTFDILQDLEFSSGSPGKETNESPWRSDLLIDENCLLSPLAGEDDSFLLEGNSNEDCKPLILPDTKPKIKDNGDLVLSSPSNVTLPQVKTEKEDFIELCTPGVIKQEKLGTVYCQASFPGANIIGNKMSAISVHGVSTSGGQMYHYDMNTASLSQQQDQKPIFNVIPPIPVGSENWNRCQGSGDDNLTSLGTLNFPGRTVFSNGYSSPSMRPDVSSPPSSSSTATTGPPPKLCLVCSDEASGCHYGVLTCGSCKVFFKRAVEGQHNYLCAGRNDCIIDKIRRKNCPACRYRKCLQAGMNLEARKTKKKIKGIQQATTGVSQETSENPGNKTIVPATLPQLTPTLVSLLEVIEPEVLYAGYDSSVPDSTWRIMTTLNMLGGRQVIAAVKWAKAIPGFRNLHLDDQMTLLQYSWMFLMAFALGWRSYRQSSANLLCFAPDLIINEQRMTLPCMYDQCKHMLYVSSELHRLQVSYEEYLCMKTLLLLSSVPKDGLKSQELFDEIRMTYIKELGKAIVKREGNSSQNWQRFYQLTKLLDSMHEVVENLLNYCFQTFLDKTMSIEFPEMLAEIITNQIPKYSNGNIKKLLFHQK

Glucocorticoid receptor [2] = biological target: T2, Glucocorticoid receptor (Rattus norvegicus, UniProt P06536); assay: Transactivation activity at glucocorticoid receptor in rat H4II-E cells assessed as induction of tyrosine aminotransferase; format: ADME, cell-based
T2 sequence (P06536 whole entry): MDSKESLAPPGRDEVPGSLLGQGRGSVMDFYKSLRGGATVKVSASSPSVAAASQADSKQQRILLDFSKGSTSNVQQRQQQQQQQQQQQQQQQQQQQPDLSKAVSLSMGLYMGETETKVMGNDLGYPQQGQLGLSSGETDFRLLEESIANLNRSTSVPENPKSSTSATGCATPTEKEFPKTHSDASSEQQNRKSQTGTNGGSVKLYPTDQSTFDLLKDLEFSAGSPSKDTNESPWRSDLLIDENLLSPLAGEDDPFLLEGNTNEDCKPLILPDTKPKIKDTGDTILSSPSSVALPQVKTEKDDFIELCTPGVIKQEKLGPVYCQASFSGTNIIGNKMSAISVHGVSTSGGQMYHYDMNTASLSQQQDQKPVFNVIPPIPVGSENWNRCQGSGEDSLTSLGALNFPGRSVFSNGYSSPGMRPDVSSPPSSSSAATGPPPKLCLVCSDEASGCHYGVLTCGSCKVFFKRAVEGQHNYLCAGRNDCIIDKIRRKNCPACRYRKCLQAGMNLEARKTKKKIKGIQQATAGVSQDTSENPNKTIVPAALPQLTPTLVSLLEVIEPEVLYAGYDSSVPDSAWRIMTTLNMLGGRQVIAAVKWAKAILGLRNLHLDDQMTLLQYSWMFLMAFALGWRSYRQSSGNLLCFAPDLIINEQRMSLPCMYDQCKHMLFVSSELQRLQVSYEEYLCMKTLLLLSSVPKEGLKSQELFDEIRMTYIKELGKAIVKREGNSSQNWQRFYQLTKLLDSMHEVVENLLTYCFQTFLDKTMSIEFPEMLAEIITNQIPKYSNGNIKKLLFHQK

Glucocorticoid receptor [3] = biological target: T1, Glucocorticoid receptor; assay: Transactivation activity at human glucocorticoid receptor in cells co-expressing GRE by luciferase reporter gene assay relative to control; conditions: read-out: Efficacy
Rattus norvegicus [4] = assay: Antiinflammatory activity in Brown Norway rat lung inflammation model assessed as total cell inhibition at 2 mg/kg, it; format: functional; conditions: route endotracheal
[5] = Cmax in po dosed rat; format: ADME, organism-based; parameters: route oral; conditions: in vivo
[6] = AUC in po dosed rat; format: ADME, organism-based; conditions: plasma
Glucocorticoid receptor [7] = biological target: T1, Glucocorticoid receptor; assay: Transactivation activity at glucocorticoid receptor in human HepG2 cells assessed as induction of tyrosine aminotransferase; format: ADME, cell-based
Rattus norvegicus [8] = assay: Antiinflammatory activity in Brown Norway rat lung inflammation model assessed as total cell inhibition at 10 mg/kg, po for 3 days; format: functional; conditions: 72 h
Rattus norvegicus [9] = assay: Transactivation activity in Brown Norway rat lung inflammation model assessed as thymolysis measuring decrease in thymus weight at 10 mg/kg, po for 3 days; format: organism-based; parameters: dose 10 mg/kg, route oral; scale not given: the % may be the effect or the level left; conditions: in vivo, 72 h
Glucocorticoid receptor [10] = biological target: T1, Glucocorticoid receptor; assay: Inhibition of human glucocorticoid receptor
Glucocorticoid receptor [11] = biological target: T1, Glucocorticoid receptor; assay: Transactivation activity at human glucocorticoid receptor in cells co-expressing GRE by luciferase reporter gene assay; conditions: read-out: IC50 (the source's name)

SMILES | IC50 (Glucocorticoid receptor [1]) | IC50 (Glucocorticoid receptor [2]) | Emax (Glucocorticoid receptor [3]) | inhibition in vivo at 2 mg/kg (Rattus norvegicus [4]) | Cmax [5] | AUC [6] | IC50 (Glucocorticoid receptor [7]) | inhibition in vivo at 10 mg/kg (Rattus norvegicus [8]) | Activity (Rattus norvegicus [9]) | IC50 (Glucocorticoid receptor [10]) | EC50 (Glucocorticoid receptor [11])
C[C@]12Cc3cnn(-c4ccccc4)c3C=C1CC[C@@H]1[C@@H]2[C@@H](O)C[C@@]2(C)[C@H]1CC[C@]2(O)C(=O)CSc1cnc2ccccc2n1 | 5.36 nM | 113 nM | 68% | 28% | 21 ng/mL | 64 ng·h/mL | 226 nM |  |  |  | 
C[C@]12C=CC(=O)C=C1CC[C@@H]1[C@@H]2[C@@H](O)C[C@@]2(C)[C@H]1CC[C@]2(O)C(=O)CO [PREDNISOLONE] |  |  |  |  | 682 ng/mL | 1250 ng·h/mL |  | 56% | 53% |  | 
C[C@]12CCC(=O)C=C1CC[C@@H]1[C@@H]2[C@@H](O)C[C@@]2(C)[C@H]1CC[C@]2(O)C(=O)CSc1nc2ccccc2o1 | 26.7 nM |  | 35% |  |  |  |  |  |  | 3.9 nM | 
C[C@]12Cc3cnn(-c4ccc(F)cc4)c3C=C1CC[C@@H]1[C@@H]2[C@@H](O)C[C@@]2(C)[C@H]1CC[C@]2(O)C(=O)CSc1nc2ncccc2o1 | 0.32 nM | 13.3 nM |  |  | 348 ng/mL | 1630 ng·h/mL | 38.6 nM | 48% | 70% |  | 
C[C@]12CCC(=O)C=C1CC[C@@H]1[C@@H]2[C@@H](O)C[C@@]2(C)[C@H]1CC[C@]2(O)C(=O)CSc1ccc2ccccc2n1 | 89.3 nM |  | 0% |  |  |  |  |  |  | 6.6 nM | 
Cc1nc(SCC(=O)[C@@]2(O)CC[C@H]3[C@@H]4CCC5=Cc6c(cnn6C6CCCCC6)C[C@]5(C)[C@H]4[C@@H](O)C[C@@]32C)sc1C | 2.8 nM | 135 nM | 88% |  |  |  | 168 nM |  |  |  | 31.8 nM
C[C@]12CCC(=O)C=C1CC[C@@H]1[C@@H]2[C@@H](O)C[C@@]2(C)[C@H]1CC[C@]2(O)C(=O)CSc1nc2ncccc2s1 | 59.1 nM |  | 16% |  |  |  |  |  |  | 4.7 nM | 
C[C@]12CCC(=O)C=C1CC[C@@H]1[C@@H]2[C@@H](O)C[C@@]2(C)[C@H]1CC[C@]2(O)C(=O)CSc1ccccn1 | 23.8 nM |  | 14% |  |  |  |  |  |  | 14.9 nM | 
Cn1c(SCC(=O)[C@@]2(O)CC[C@@]3(C)[C@@H]4CCC5=CC(=O)CC[C@]5(C)[C@H]4[C@@H](O)C[C@@]32C)nc2ccccc21 | 56.1 nM |  | 8% |  | 115 ng/mL | 150 ng·h/mL |  | 39% | 5% | 8.9 nM | 
C[C@]12Cc3cnn(C4CCCCC4)c3C=C1CC[C@@H]1[C@@H]2[C@@H](O)C[C@@]2(C)[C@H]1CC[C@]2(O)C(=O)CSc1ncccn1 | 7.3 nM |  | 76% |  |  |  | 1000 nM |  |  |  | 137 nM
Cc1nc(SCC(=O)[C@@]2(O)CC[C@H]3[C@@H]4CCC5=CC(=O)CC[C@]5(C)[C@H]4[C@@H](O)C[C@@]32C)sc1C | 21.9 nM |  | 57% |  |  |  |  |  |  | 4.3 nM | 
C[C@]12Cc3cnn(-c4ccccc4)c3C=C1CC[C@@H]1[C@@H]2[C@@H](O)C[C@@]2(C)[C@H]1CC[C@]2(O)C(=O)CSc1nc2ncccc2o1 | 0.89 nM | 33.8 nM | 83% |  | 467 ng/mL | 2030 ng·h/mL | 37.7 nM | 62% | 67% |  | 
C=CCn1c(SCC(=O)[C@@]2(O)CC[C@H]3[C@@H]4CCC5=Cc6c(cnn6-c6ccccc6)C[C@]5(C)[C@H]4[C@@H](O)C[C@@]32C)nc2ccccc21 | 3.43 nM | 258 nM | 86% |  |  |  | 278 nM |  |  |  | 28.6 nM
C[C@]12CCC(=O)C=C1CC[C@@H]1[C@@H]2[C@@H](O)C[C@@]2(C)[C@H]1CC[C@]2(O)C(=O)CSc1cnc2ccccc2n1 | 22.1 nM |  | 1% |  | 255 ng/mL | 274 ng·h/mL |  | 39% | 0% |  | 
Cn1c(SCC(=O)[C@@]2(O)CC[C@H]3[C@@H]4CCC5=Cc6c(cnn6-c6ccccc6)C[C@]5(C)[C@H]4[C@@H](O)C[C@@]32C)nc2ccccc21 | 4.7 nM | 78 nM | 64% |  |  |  | 66.7 nM |  |  |  | 19.1 nM
C[C@]12Cc3cnn(-c4ccccc4)c3C=C1CC[C@@H]1[C@@H]2[C@@H](O)C[C@@]2(C)[C@H]1CC[C@]2(O)C(=O)CSc1ccccn1 | 1.5 nM | 225 nM | 102% |  |  |  | 596 nM |  |  |  | 8.4 nM
C[C@]12Cc3cnn(-c4ccc(F)cc4)c3C=C1CC[C@@H]1[C@@H]2[C@@H](O)C[C@@]2(C)[C@H]1CC[C@]2(O)C(=O)CSc1cnc2ccccc2n1 | 1.99 nM |  |  | 9% |  |  |  |  |  |  | 
C[C@]12Cc3cnn(-c4ccccc4)c3C=C1CC[C@@H]1[C@@H]2[C@@H](O)C[C@@]2(C)[C@H]1CC[C@]2(O)C(=O)CSc1ccc2ccccc2n1 | 14.8 nM | 82.3 nM | 69% |  |  |  | 60.1 nM |  |  |  | 101 nM
